# Laboratory results: US11826365B2, “Type II raf kinase inhibitors” (Dana-Farber Cancer Institute, Inc., priority 2009, dated 2023)
# How the values were obtained:
# Type in all cases: cell-based
# [1] = test system: JNK; test: Phosphorylation analysis by western blotting, phospho-JNK after anisomycin stimulation; conditions: following stimulation with anisomycin; western blot, phospho-JNK (Thr183/Tyr185)
# Method: (§1) The phosphorylation levels of Erk, JNK, and p38 were assessed by western blotting using phospho-specific antibodies (results not shown). In brief, cells were treated for 15 min with/without 2 uM anicomycin to stimulate the MAPK-signaling pathways. Next various concentrations of the test compound were added to treat cells for 90 minutes. Cells lysed in lysis buffer (50 mM Tris-HCl pH 7.4, 150 mM NaCl, 5 mM EDTA, 1 mM EGTA, 1% Nonidet P-40, 2 mM Na3VO4 and protease inhibitor cocktail (Roche)). Equal amounts of lysate ([…]) were subjected to SDS-PAGE followed by immunoblotting with phospho-specific antibodies—anti-phospho-Erk (Thr202/Tyr204), anti-phospho-JNK (Thr183/Tyr185) and anti-phospho-p38 (Thr180/Tyr182) antibodies—or antibodies recognizing Erk (Cell signaling). Proteins were detected by enhanced chemioluminescence (ECL-plus; Amersham), following the manufacturer's guidelines.
# [2] = test system: p38; test: Phosphorylation analysis by western blotting, phospho-p38 after anisomycin stimulation; conditions: following stimulation with anisomycin; western blot, phospho-p38 (Thr180/Tyr182)
# Method: as §1
# [3] = test system: Erk1/2; test: Phosphorylation analysis by western blotting, phospho-Erk after anisomycin stimulation; conditions: following stimulation with anisomycin; western blot, phospho-Erk (Thr202/Tyr204)
# Method: as §1
# [4] = target: T1, B-RAF 'gatekeeper mutation' T529I (Homo sapiens, UniProt P15056, T529I); test: Suppression of B-RAF gatekeeper mutation T529I (FIGS. 18A to 18B); conditions: T529I confers resistance in other B-RAF inhibitors
# T1 construct: expressed in transfected cells; host or cells: Ba/F3 (murine pro-B) cells transformed with B-RAF
# Method: Ba/F3 cells and B-RAF transformed Ba/F3 cells were maintained in RPMI 1640 medium supplemented with 10% fetal bovine serum (FBS) in a 5% CO2 incubator at 37° C. The untransformed Ba/F3 cells are supplemented with 1.0 ng/ml of recombinant IL3. 4000 Ba/F3 cells per well were plated in quadruplicate in 384-well plates, in RPMI 1640 media supplemented with 10% FBS and various concentrations of IL3. After 48 h of growth, Brightglo reagent (Promega, WI) was added to each well. Luminescent was read as counts/sec. XL-fit was used for IC50 analysis.
# T1 sequence (P15056 whole entry T529I): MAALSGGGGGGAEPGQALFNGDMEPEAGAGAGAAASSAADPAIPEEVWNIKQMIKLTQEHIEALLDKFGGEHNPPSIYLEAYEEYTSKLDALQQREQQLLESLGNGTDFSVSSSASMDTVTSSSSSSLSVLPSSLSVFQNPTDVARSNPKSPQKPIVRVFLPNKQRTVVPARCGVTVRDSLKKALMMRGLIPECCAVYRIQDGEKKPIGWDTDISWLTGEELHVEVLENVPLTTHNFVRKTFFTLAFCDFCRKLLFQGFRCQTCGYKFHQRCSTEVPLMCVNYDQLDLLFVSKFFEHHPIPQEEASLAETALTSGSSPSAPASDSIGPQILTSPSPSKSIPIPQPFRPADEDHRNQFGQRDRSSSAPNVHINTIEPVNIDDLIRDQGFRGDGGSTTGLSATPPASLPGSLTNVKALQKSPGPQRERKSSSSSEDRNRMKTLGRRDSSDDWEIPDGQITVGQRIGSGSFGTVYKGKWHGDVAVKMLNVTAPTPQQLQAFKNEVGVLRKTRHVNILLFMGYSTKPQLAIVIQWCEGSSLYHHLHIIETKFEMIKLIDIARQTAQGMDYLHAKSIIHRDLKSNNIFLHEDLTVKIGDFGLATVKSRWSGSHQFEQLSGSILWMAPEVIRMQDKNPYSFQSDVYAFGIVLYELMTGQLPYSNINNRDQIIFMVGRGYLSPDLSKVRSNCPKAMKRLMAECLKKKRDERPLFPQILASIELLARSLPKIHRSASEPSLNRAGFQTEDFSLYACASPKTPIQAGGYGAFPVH
structure (smiles),measurement,setting,value
"CCN1CCN(Cc2ccc(NC(=O)c3ccc(C)c(/C=C/c4cnc5[nH]ccc5c4OC)c3)cc2C(F)(F)F)CC1 [XI-1, (E)-N-(4-((4-ethylpiperazin-1-yl)methyl)-3-(trifluoromethyl)phenyl)-3-(2-(4-methoxy-1H-pyrrolo[2,3-b]pyridin-5-yl)vinyl)-4-methylbenzamide]",inhibition of phosphorylation of JNK,[1],inhibits
same,inhibition of phosphorylation of p38,[2],inhibits
same,inhibition of phosphorylation of Erk1/2,[3],not
same,suppression of B-RAF gatekeeper mutation T529I,[4],can suppress
